What was measured:
rat model of OCD [1] = test: Observing Response Task (ORT), rat model of compulsive-like checking in OCD (sign-trackers = OCD model, goal-trackers = controls); format: in vivo
From the text: OCD may be studied using animal models and such models may be used to evaluate compounds of the present invention. One model may be a rat model of compulsive-like checking behaviour described by Eagle et al., Behav. Brain Res, 1 May 2014; 264(100): 207-29. Briefly, rats are trained to work for palatable food which is unpredictably available for responding on one of two levers in an operant chamber. The rats can gain information about the location of the effective lever by making ‘observing responses’ on a third lever at the rear of the chamber. Predictably, responding on this lever is increased under conditions of uncertainty, as this adaptive checking increases the chance of food reward. However, some rats respond excessively on the observing lever and this can be disadvantageous or ‘non-functional’. This excessive checking behaviour is boosted by treatment with dopamine D2 receptor drugs such as quinpirole and also if there is a prior tendency in rats to over-respond to conditioning signals for food (‘sign-tracking’), associated with elevated dopamine activity in the nucleus accumbens. Rats who respond to the food itself are called goal-trackers. […] Moreover, in a human version of this test (i.e. involving essentially the same task for humans as for rodents), it has been shown that OCD patients check more than healthy control volunteers (Morein-Zamir et al., Q. J. Exp. Psychol. (Hove), 2018 October; 71(10): 2052-2069).
Male Lister-hooded rats (n=48, Charles River, UK) were group-housed in fours and maintained at approximately 95% free-feeding weight. Experiments were conducted during the dark phase of a reversed 12-hour light-dark cycle (lights off at 07:00). This research was conducted on UK Home Office Project Licence PA9FBFA9F and was regulated under the Animals (Scientific Procedures) Act 1986 Amendment Regulations 2012 following ethical review by the University of Cambridge Animal Welfare and Ethical Review Body.
The 48 male Lister-Hooded rats were trained on the Observing Response Task (ORT) and classified as sign-trackers […] or goal-trackers (n=24) following AutoShaping training, as described previously. Based on the research described above, the sign-tracker rats provide the OCD model and the goal-trackers are controls.
The ‘drug treatment’ data refer to behaviour under the influence of the specific dose (3 mg/kg or 10 mg/kg), 2 hours after an intraperitoneal injection. The ‘0 mg/kg’ data refer to an intraperitoneal injection of the 0.9% (w/v) physiological saline vehicle.
Rats were divided into groups to receive different doses of AZD-8529 in a counterbalanced order. […] “mg/kg” refers to a dose that was determined based on the body weight of the rat. For example, a rat weighing 0.5 kg receiving a dose of 3 mg/kg would receive a dose of 1.5 mg.
All statistical analyses were conducted using IBM SPSS Statistics v27. Data were analysed using repeated measures ANOVAs. Omnibus ANOVAs were first conducted to determine whether the order of drug dosing influenced the behavioural outcomes, and whether there were differences in baseline levels of responding. Planned ANOVAs assessing the drug administration sessions only were subsequently conducted.

rat model of OCD [2] = test: as above; format: in vivo; settings: rats, 30 mg/kg single intraperitoneal dose

For `Cc1cc(-c2nc(CN3CCNCC3)no2)cc2c1C(=O)N(Cc1ccc(OC(F)(F)F)cc1)C2` [AZD-8529, 7-methyl-5-(3-piperazin-1-ylmethyl-[1,2,4]oxadiazol-5-yl)-2-(4-trifluoromethoxybenzyl)-2,3-dihydroisoindol-1-one], the “number of rewards earned during the session” value (rat model of OCD [1]; 3 mg/kg i.p. vs vehicle, full cohort, p=0.91) was “equivalent numbers of rewards were earned”, the “increased responding on the active lever during the cue (discrimination with light on)” value (rat model of OCD [1]; 3 mg/kg i.p., full cohort, p=0.38) was “not seen” and the “number of rewards earned during the session” value (rat model of OCD [1]; 10 mg/kg i.p., full cohort, compared to vehicle and 3 mg/kg, p<0.001) was “reduced the numbers of reward earned”. The “increased responding on the active lever during the cue (discrimination with light on)” value (rat model of OCD [1]; 10 mg/kg i.p., full cohort, p=0.21) was “not seen”, the “dysfunctional checking (eOLPs)” value (rat model of OCD [1]; OCD model (sign-trackers), 3 mg/kg i.p. vs 0 mg/kg control, p<0.002) was “reduction in dysfunctional checking” and the “dysfunctional checking (eOLPs)” value (rat model of OCD [1]; OCD model (sign-trackers), 10 mg/kg i.p. vs 0 mg/kg control, p<0.002, not lower than 3 mg/kg (p=0.94)) was “reduction in dysfunctional checking”. For the same compound, the “functional checking (Observing Lever Presses, OLPs)” value (rat model of OCD [1]; OCD model (sign-trackers), 3 and 10 mg/kg i.p., 2 hours after injection, p<0.001) was “reduced functional checking in a dose-dependent manner”, the “functional checking (Observing Lever Presses, OLPs)” value (rat model of OCD [1]; controls (goal-trackers), 3 and 10 mg/kg i.p., 2 hours after injection, p=0.008) was “reduced functional checking in a dose-dependent manner” and the “dysfunctional checking (eOLPs)” value (rat model of OCD [1]; controls (goal-trackers), 3 and 10 mg/kg i.p., all p's>0.079) was “no overall reduction in dysfunctional checking”. For the same compound, the “functional checking (Observing Lever Presses, OLPs)” value (rat model of OCD [1]; full cohort (sign-trackers plus goal-trackers), 3 and 10 mg/kg i.p. vs 0 mg/kg, 2 hours after injection, mesylate salt, p<0.001) was “reduced functional checking in a dose-dependent manner”, the “dysfunctional checking (Extra Observing Lever Presses, eOLPs)” value (rat model of OCD [1]; full cohort, 3 and 10 mg/kg i.p. vs 0 mg/kg, 2 hours after injection, p<0.001) was “reduced dysfunctional checking in a dose-dependent manner” and the adverse effects (rat model of OCD [2]) was “unexpected adverse gastrointestinal effects”.
